According to PubChem BioAssay AID2060903 (Molecular Pharmacology Branch, DTP, NCI, 2025):
One block for each molecule: values may come before it.

System: 377384-186-R-J1-PDC complex spheroid viability
Test: Anticancer human tumor 377384-186-R-J1-PDC patient-derived pancreatic carcinoma cell line growth inhibition [RAS]
Details: for IC50: curve of first compound; for viability, T/C: stronger effect = lower value
How it was run: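 Multi-cell-type spheroids: tumor cells plus HUVEC endothelial cells and mesenchymal stem cells. RAS-pathway inhibitors were combined with targeted agents, each dosed in half-log steps down from clinical Cmax, or from 10 microM when Cmax was unknown.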

[1] = second compound 0.00316 µM, first compound 0.0316 µM
[2] = second compound 0.00316 µM, first compound 0.1 µM
[3] = second compound 0.00316 µM, first compound 0.316 µM
[4] = second compound 0.00316 µM, first compound 1 µM
[5] = second compound 0.01 µM, first compound 0.0316 µM
[6] = second compound 0.01 µM, first compound 0.1 µM
[7] = second compound 0.01 µM, first compound 0.316 µM
[8] = second compound 0.01 µM, first compound 1 µM
[9] = second compound 0.0316 µM, first compound 0.0316 µM
[10] = second compound 0.0316 µM, first compound 0.1 µM
[11] = second compound 0.0316 µM, first compound 0.316 µM
[12] = second compound 0.0316 µM, first compound 1 µM
[13] = second compound 0.1 µM, first compound 0.0316 µM
[14] = second compound 0.1 µM, first compound 0.1 µM
[15] = second compound 0.1 µM, first compound 0.316 µM
[16] = second compound 0.1 µM, first compound 1 µM
[17] = second compound 0.316 µM, first compound 0.0316 µM
[18] = second compound 0.316 µM, first compound 0.1 µM
[19] = second compound 0.316 µM, first compound 0.316 µM
[20] = second compound 0.316 µM, first compound 1 µM
[21] = second compound 1 µM, first compound 0.0316 µM
[22] = second compound 1 µM, first compound 0.1 µM
[23] = second compound 1 µM, first compound 0.316 µM
[24] = second compound 1 µM, first compound 1 µM
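Note: spheroids exposed to compounds for seven days before readout.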

IC50 (second compound 0.00316 µM): > 10000 nM
IC50 (second compound 0.01 µM): > 10000 nM
IC50 (second compound 0.0316 µM): > 10000 nM
IC50 (second compound 0.1 µM): > 10000 nM
IC50 (second compound 0.316 µM): > 10000 nM
IC50 (second compound 1 µM): > 10000 nM
SMILES: NC1c2ccccc2OC12CCN(c1cnc3c(N4CCCc5ncccc54)n[nH]c3n1)CC2 (centres undefined) + C=CC(=O)N1CCN(c2nc(OCC3CCCN3C)nc3c(F)c(-c4nc(N)cc(C)c4C(F)(F)F)c(Cl)cc23)C(C)C1
viability, T/C [1]: 82.9%
viability, T/C [2]: 77%
viability, T/C [3]: 66.5%
viability, T/C [4]: 69.1%
viability, T/C (second compound 0.00316 µM, first compound 3.16 µM): 75.6%
viability, T/C (second compound 0.00316 µM, first compound 10 µM): 68.4%
viability, T/C [5]: 86.9%
viability, T/C [6]: 63.1%
viability, T/C [7]: 76.8%
viability, T/C [8]: 71.9%
viability, T/C (second compound 0.01 µM, first compound 3.16 µM): 65.8%
viability, T/C (second compound 0.01 µM, first compound 10 µM): 63.8%
viability, T/C [9]: 83.5%
viability, T/C [10]: 68.8%
viability, T/C [11]: 76%
viability, T/C [12]: 65.7%
viability, T/C (second compound 0.0316 µM, first compound 3.16 µM): 57.7%
viability, T/C (second compound 0.0316 µM, first compound 10 µM): 66%
viability, T/C [13]: 90.7%
viability, T/C [14]: 70.1%
viability, T/C [15]: 75.9%
viability, T/C [16]: 64.5%
viability, T/C (second compound 0.1 µM, first compound 3.16 µM): 72.1%
viability, T/C (second compound 0.1 µM, first compound 10 µM): 70.7%
viability, T/C [17]: 81.2%
viability, T/C [18]: 70.8%
viability, T/C [19]: 78.9%
viability, T/C [20]: 70.3%
viability, T/C (second compound 0.316 µM, first compound 3.16 µM): 71.8%
viability, T/C (second compound 0.316 µM, first compound 10 µM): 71%
viability, T/C [21]: 79.3%
viability, T/C [22]: 73.3%
viability, T/C [23]: 77.9%
viability, T/C [24]: 73.1%
viability, T/C (second compound 1 µM, first compound 3.16 µM): 76.3%
viability, T/C (second compound 1 µM, first compound 10 µM): 68.4%

IC50 (second compound 0.00316 µM): 6.73 nM
IC50 (second compound 0.01 µM): 7.09 nM
IC50 (second compound 0.0316 µM): 6.58 nM
IC50 (second compound 0.1 µM): 5.53 nM
IC50 (second compound 0.316 µM): 7.31 nM
IC50 (second compound 1 µM): 6.18 nM
SMILES: Nc1ccn(C2OC(CO)C(O)C2(F)F)c(=O)n1 (centres undefined) + C=CC(=O)N1CCN(c2nc(OCC3CCCN3C)nc3c(F)c(-c4nc(N)cc(C)c4C(F)(F)F)c(Cl)cc23)C(C)C1
viability, T/C (second compound 0.00316 µM, first compound 0.00316 µM): 76.9%
viability, T/C (second compound 0.00316 µM, first compound 0.01 µM): 35.9%
viability, T/C [1]: 11.5%
viability, T/C [2]: 4.72%
viability, T/C [3]: 3.54%
viability, T/C [4]: 2.18%
viability, T/C (second compound 0.01 µM, first compound 0.00316 µM): 81.7%
viability, T/C (second compound 0.01 µM, first compound 0.01 µM): 36.5%
viability, T/C [5]: 13.4%
viability, T/C [6]: 4.91%
viability, T/C [7]: 3.97%
viability, T/C [8]: 3.71%
viability, T/C (second compound 0.0316 µM, first compound 0.00316 µM): 74%
viability, T/C (second compound 0.0316 µM, first compound 0.01 µM): 36.3%
viability, T/C [9]: 9.49%
viability, T/C [10]: 4.74%
viability, T/C [11]: 3.22%
viability, T/C [12]: 2.97%
viability, T/C (second compound 0.1 µM, first compound 0.00316 µM): 60.4%
viability, T/C (second compound 0.1 µM, first compound 0.01 µM): 38.9%
viability, T/C [13]: 12%
viability, T/C [14]: 3.63%
viability, T/C [15]: 3.27%
viability, T/C [16]: 2.81%
viability, T/C (second compound 0.316 µM, first compound 0.00316 µM): 80.5%
viability, T/C (second compound 0.316 µM, first compound 0.01 µM): 38.5%
viability, T/C [17]: 13.1%
viability, T/C [18]: 4.24%
viability, T/C [19]: 3.5%
viability, T/C [20]: 3.38%
viability, T/C (second compound 1 µM, first compound 0.00316 µM): 65.3%
viability, T/C (second compound 1 µM, first compound 0.01 µM): 38.8%
viability, T/C [21]: 16.7%
viability, T/C [22]: 5.53%
viability, T/C [23]: 4.43%
viability, T/C [24]: 4.1%
